Measured values published in patent US20260242419A1, “A CYCLIC PEPTIDE FOR TRAPPING INTERLEUKIN-1 BETA” (Merck Sharp & Dohme LLC, priority 2023, published 2026).
Where two headings read alike, the source gives them in different places. Starred links: 1 amine or outer side, 2 acyl side, 3 side chain; linkers in the order of their positions; H or OH if unused. Non-standard residues stand in square brackets, D forms with d. Residues, ends and D or L forms follow the SMILES beside them. *: point of attachment. dPro(4R-(4-pyridylmethyl)) = O=C(O)[C@H]1C[C@@H](Cc2ccncc2)CN1; Trp(βS-Me,4-F) = C[C@@H](c1c[nH]c2cccc(F)c12)[C@H](N)C(=O)O; Bip(4'-COOH) = N[C@@H](Cc1ccc(-c2ccc(C(=O)O)cc2)cc1)C(=O)O; X28 = CC(=O)N1CCN(c2ncc(C[C@H](N[*:1])C(=O)[*:2])cn2)CC1; dPro(4R-Bzl(4-F)) = O=C(O)[C@H]1C[C@@H](Cc2ccc(F)cc2)CN1; X31 = O=C(O)c1ccc([C@@H](O)[C@H](N[*:1])C(=O)[*:2])cc1; Ala(pyrimidin-5-yl) = N[C@@H](Cc1cncnc1)C(=O)O; Phe(4-CONH2) = NC(=O)c1ccc(C[C@H](N)C(=O)O)cc1; Phe(4-COOH) = N[C@@H](Cc1ccc(C(=O)O)cc1)C(=O)O; Phe(4-tBu) = CC(C)(C)c1ccc(C[C@H](N)C(=O)O)cc1; Pro(cis-4-F) = O=C(O)[C@@H]1C[C@H](F)CN1; Cyclohexanecarbonyl = O=C(C1CCCCC1)*; AEF = NCCOc1ccc(C[C@H](N)C(=O)O)cc1; Dap(CONH2) = NC(=O)NC[C@H](N)C(=O)O; 4Pal = N[C@@H](Cc1ccncc1)C(=O)O; Cit = NC(=O)NCCC[C@H](N)C(=O)O; NMeDab = CN[C@@H](CCN)C(=O)O; Dab = NCC[C@H](N)C(=O)O; Aib = CC(C)(N)C(=O)O

Molecular target: T1, IL-1β (Homo sapiens, UniProt P01584)
T1 construct: purchased BioLegend 579404
T1 sequence (P01584 117-269): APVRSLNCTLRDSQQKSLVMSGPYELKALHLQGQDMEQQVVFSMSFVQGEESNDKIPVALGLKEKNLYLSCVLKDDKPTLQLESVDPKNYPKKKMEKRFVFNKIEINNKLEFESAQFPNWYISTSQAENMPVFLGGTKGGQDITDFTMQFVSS
Assay: IL-6 assay in MRC5 cells: inhibition of IL-1β induced IL-6 secretion (AlphaLISA)
Assay type: cell-based
Settings: inhibition of IL-1β induced IL-6 secretion in MRC5 cells, read-out: MRC5 IC50
Method in brief: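 Compound was pre-incubated 1 h at ambient temperature with recombinant human IL-1β at 2λ EC80 before adding human lung fibroblast MRC5 cells (3000/well) in EMEM with 0.025% BSA. After overnight culture at 37 °C, 5% CO2, secreted IL-6 in conditioned medium was measured by AlphaLISA; IC50 from 4-parameter logistic fits.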

[1] = compound pre-incubated 1 hour with recombinant human IL-1β

**Q.** With `C[C@@H](c1c[nH]c2cccc(F)c12)[C@@H]1NC(=O)[C@@H]2C[C@H](F)CN2C(=O)CNC(=O)[C@H](Cc2ccc(C(=O)O)cc2)NC(=O)[C@H](Cc2ccncc2)NC(=O)[C@H](Cc2ccc(-c3ccc(C(=O)O)cc3)cc2)NC(=O)[C@H]2C[C@@H](Cc3ccncc3)CN2C(=O)CNC(=O)[C@H](CNC(N)=O)NC(=O)[C@H](CCC(N)=O)NC(=O)[C@H](Cc2cncnc2)NC(=O)C(C)(C)NC(=O)[C@H](Cc2c[nH]c3ccccc23)NC(=O)[C@H](CO)NC(=O)C(C)(C)NC1=O` [Example 270] (cyclo([Bip(4'-COOH)][4Pal][Phe(4-COOH)]G[Pro(cis-4-F)][Trp(βS-Me,4-F)][Aib]SW[Aib][Ala(pyrimidin-5-yl)]Q[Dap(CONH2)]G[dPro(4R-(4-pyridylmethyl))])) as the molecule, how does the IC50 [1] read?
**A.** 0.023 nM

**Q.** `C[C@@H](c1c[nH]c2cccc(F)c12)[C@@H]1NC(=O)[C@@H]2C[C@H](F)CN2C(=O)CNC(=O)[C@H](Cc2ccc(C(=O)O)cc2)NC(=O)[C@H](Cc2ccncc2)NC(=O)[C@H](Cc2ccc(-c3ccc(C(=O)O)cc3)cc2)NC(=O)[C@H]2C[C@@H](Cc3ccc(F)cc3)CN2C(=O)CNC(=O)[C@H](CCN)NC(=O)[C@H](CCC(N)=O)NC(=O)[C@H](CCCNC(N)=O)NC(=O)C(C)(C)NC(=O)[C@H](Cc2c[nH]c3ccccc23)NC(=O)[C@H](CCC(=O)O)NC(=O)C(C)(C)NC1=O` [Example 52] (cyclo([Bip(4'-COOH)][4Pal][Phe(4-COOH)]G[Pro(cis-4-F)][Trp(βS-Me,4-F)][Aib]EW[Aib][Cit]Q[Dab]G[dPro(4R-Bzl(4-F))])) was tested. Which IC50 did it give?
**A.** 0.021 nM

**Q.** Which IC50 does the source give for `C[C@@H](c1c[nH]c2cccc(F)c12)[C@@H]1NC(=O)[C@@H]2C[C@H](F)CN2C(=O)CNC(=O)[C@H](Cc2ccc(C(=O)O)cc2)NC(=O)[C@H](Cc2ccncc2)NC(=O)[C@H](Cc2ccc(C(C)(C)C)cc2)NC(=O)[C@H]2C[C@@H](Cc3ccncc3)CN2C(=O)CNC(=O)[C@H](CCN)NC(=O)[C@H](CCC(N)=O)NC(=O)[C@H](Cc2cncnc2)NC(=O)C(C)(C)NC(=O)[C@H](Cc2c[nH]c3ccccc23)NC(=O)[C@H](CCC(=O)O)NC(=O)C(C)(C)NC1=O` [Example 311] (cyclo([Phe(4-tBu)][4Pal][Phe(4-COOH)]G[Pro(cis-4-F)][Trp(βS-Me,4-F)][Aib]EW[Aib][Ala(pyrimidin-5-yl)]Q[Dab]G[dPro(4R-(4-pyridylmethyl))])) here?
**A.** 0.017 nM

**Q.** Which IC50 [1] does the source give for `C[C@@H](c1c[nH]c2cccc(F)c12)[C@@H]1NC(=O)[C@@H]2C[C@H](F)CN2C(=O)CNC(=O)[C@H](Cc2ccc(C(=O)O)cc2)NC(=O)[C@H](Cc2ccncc2)NC(=O)[C@H](Cc2ccc(OCCNC(=O)C3CCCCC3)cc2)NC(=O)[C@H]2C[C@@H](Cc3ccncc3)CN2C(=O)CNC(=O)[C@H](CCN)NC(=O)[C@H](CCC(N)=O)NC(=O)[C@H](Cc2cncnc2)NC(=O)C(C)(C)NC(=O)[C@H](Cc2c[nH]c3ccccc23)NC(=O)[C@H](CO)NC(=O)C(C)(C)NC1=O` [Example 301] (cyclo([AEF](Cyclohexanecarbonyl)[4Pal][Phe(4-COOH)]G[Pro(cis-4-F)][Trp(βS-Me,4-F)][Aib]SW[Aib][Ala(pyrimidin-5-yl)]Q[Dab]G[dPro(4R-(4-pyridylmethyl))])) here?
**A.** 0.017 nM

**Q.** How did the IC50 turn out when `CCO[C@H](C)[C@@H]1NC(=O)C(C)(C)NC(=O)[C@H](Cc2c[nH]c3ccccc23)NC(=O)[C@H](CO)NC(=O)C(C)(C)NC(=O)[C@H]([C@@H](C)c2c[nH]c3cccc(F)c23)NC(=O)[C@@H]2C[C@H](F)CN2C(=O)CNC(=O)[C@H](Cc2ccc(C(N)=O)cc2)NC(=O)[C@H](Cc2ccncc2)NC(=O)[C@H](Cc2ccc(OCCNC(C)=O)cc2)NC(=O)[C@H]2C[C@@H](Cc3ccncc3)CN2C(=O)CNC(=O)[C@H](CCN)N(C)C(=O)[C@H](CCC(N)=O)NC1=O` [Example 382] (cyclo([AEF](Ac)[4Pal][Phe(4-CONH2)]G[Pro(cis-4-F)][Trp(βS-Me,4-F)][Aib]SW[Aib]T(Et)Q[NMeDab]G[dPro(4R-(4-pyridylmethyl))])) was run?
**A.** 0.048 nM

**Q.** How did the IC50 turn out when `CC(=O)N1CCN(c2ncc(C[C@@H]3NC(=O)[C@H]4C[C@@H](Cc5ccc(F)cc5)CN4C(=O)CNC(=O)[C@H](CCN)NC(=O)[C@H](CCC(N)=O)NC(=O)[C@H](Cc4cncnc4)NC(=O)C(C)(C)NC(=O)[C@H](Cc4c[nH]c5ccccc45)NC(=O)[C@H](CCC(=O)O)NC(=O)C(C)(C)NC(=O)[C@H]([C@@H](C)c4c[nH]c5cccc(F)c45)NC(=O)[C@@H]4C[C@H](F)CN4C(=O)CNC(=O)[C@H](Cc4ccc(C(=O)O)cc4)NC(=O)[C@H](Cc4ccncc4)NC3=O)cn2)CC1` [Example 40] (cyclo([X28][4Pal][Phe(4-COOH)]G[Pro(cis-4-F)][Trp(βS-Me,4-F)][Aib]EW[Aib][Ala(pyrimidin-5-yl)]Q[Dab]G[dPro(4R-Bzl(4-F))])) was run?
**A.** 0.048 nM

**Q.** How did the IC50 [1] turn out when `C[C@@H](c1c[nH]c2cccc(F)c12)[C@@H]1NC(=O)[C@@H]2C[C@H](F)CN2C(=O)CNC(=O)[C@H]([C@H](O)c2ccc(C(=O)O)cc2)NC(=O)[C@H](Cc2ccncc2)NC(=O)[C@H](Cc2ccc(-c3ccc(C(=O)O)cc3)cc2)NC(=O)[C@H]2C[C@@H](Cc3ccc(F)cc3)CN2C(=O)CNC(=O)[C@H](CCN)NC(=O)[C@H](CCC(N)=O)NC(=O)[C@H](Cc2cncnc2)NC(=O)C(C)(C)NC(=O)[C@H](Cc2c[nH]c3ccccc23)NC(=O)[C@H](CO)NC(=O)C(C)(C)NC1=O` [Example 275] (cyclo([Bip(4'-COOH)][4Pal][X31]G[Pro(cis-4-F)][Trp(βS-Me,4-F)][Aib]SW[Aib][Ala(pyrimidin-5-yl)]Q[Dab]G[dPro(4R-Bzl(4-F))])) was run?
**A.** 0.018 nM
